Here are results for 64 compounds from patent US7332608B2, “Anthranilamides and methods of their use” (SANOFI-AVENTIS Deutschland GmbH, priority 2001, dated 2008).

SMILES strings stand for the structures.

The experiment has as its target T1, Human Kv1.5 channels (Homo sapiens, UniProt P22460).
T1 construct: expressed in transfected cells; host or cells: Xenopus laevis oocytes injected with in vitro synthesized Kv1.5-encoding RNA
As to the kind of experiment: Kv1.5 currents in Xenopus oocytes, two-microelectrode voltage clamp. It counts as cell-based. The settings on record: human Kv1.5 expressed in Xenopus laevis oocytes; voltage jumps 500 ms to 0 mV and 40 mV; room temperature; Hill equation. The method, then: Human Kv1.5 channels were expressed in Xenopus oocytes. For this purpose, firstly ooytes were isolated from Xenopus laevis and were defolliculated. Kv1.5-encoding RNA which had been synthesized in vitro was then injected into these oocytes. After 1-7 days of Kv1.5 protein expression, the Kv1.5 currents were measured on the oocytes by the two-microelectrode voltage clamp technique. The Kv1.5 channels were for this purpose usually activated with voltage jumps lasting 500 ms to 0 mV and 40 mV. A solution of the following composition flowed through the bath: NaCl 96 mM, KCl 2 mM, CaCl2 1.8 mM, MgCl2 1 mM, HEPES 5 mM (titrated to pH 7.4 with NaOH). These experiments were carried out at room temperature. The following were employed for data acquisition and analysis: geneclamp amplifier (Axon Instruments, Foster City, USA) and MacLab D/A converter and software (ADInstruments, Castle Hill, Australia). The compounds of the invention were tested by adding them in various concentrations to the bath solution. The effects of the compounds were calculated as percentage inhibition of the Kv1.5 control current which was obtained when no compound was added to the solution. The data were then extrapolated using the Hill equation in order to determine the inhibitory concentrations IC50 for the respective compounds.

T1 sequence (P22460 whole entry): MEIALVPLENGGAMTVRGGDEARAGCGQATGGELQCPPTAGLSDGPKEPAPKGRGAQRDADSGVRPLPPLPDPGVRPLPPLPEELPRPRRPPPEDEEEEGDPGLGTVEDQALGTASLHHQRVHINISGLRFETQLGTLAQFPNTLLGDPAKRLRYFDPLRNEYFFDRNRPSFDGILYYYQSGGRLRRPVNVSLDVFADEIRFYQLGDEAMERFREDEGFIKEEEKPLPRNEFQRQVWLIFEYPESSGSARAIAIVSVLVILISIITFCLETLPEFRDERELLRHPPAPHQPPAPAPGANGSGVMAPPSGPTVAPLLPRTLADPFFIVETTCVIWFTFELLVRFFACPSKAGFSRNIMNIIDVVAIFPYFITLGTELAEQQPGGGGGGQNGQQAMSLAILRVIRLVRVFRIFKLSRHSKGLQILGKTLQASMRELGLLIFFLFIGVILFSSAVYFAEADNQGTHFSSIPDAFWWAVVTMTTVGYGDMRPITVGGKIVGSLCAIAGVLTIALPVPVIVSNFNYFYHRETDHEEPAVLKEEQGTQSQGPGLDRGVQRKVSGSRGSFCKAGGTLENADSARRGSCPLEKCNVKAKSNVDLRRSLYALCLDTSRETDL

For orientation: IC50 means the concentration at which inhibition is half-maximal. A low value points to greater potency. `COc1ccc(S(=O)(=O)Nc2cc(C)ccc2C(=O)NC(C)c2ccccc2)cc1` (stereo not shown) [Example 9] came in with an IC50 of 4.9 µM.
The same measure for `CCC(Cc1ccccc1)NC(=O)c1ccccc1NS(=O)(=O)c1ccccc1` (stereo not shown) [Example 52]: 3 µM; for `CC[C@H](NC(=O)c1ccccc1NS(=O)(=O)c1cccc(OC)c1)c1ccccc1` [Example 63]: 1.7 µM.
The value for `CCC(Cc1ccccc1)NC(=O)c1cc(OC)ccc1NS(=O)(=O)c1ccc(C)cc1` (stereo not shown) [Example 51] was 3.6 µM; that for `CCC(Cc1ccccn1)NC(=O)c1cc(OC)ccc1NS(=O)(=O)c1ccc(C)cc1` (stereo not shown) [Example 142] was 0.7 µM; that for `CC[C@H](NC(=O)c1ccccc1NS(=O)(=O)c1cccc2ccccc12)c1ccccc1` [Example 62] was 3.5 µM.
The same measure for `CCCC(NC(=O)c1cc(OC)ccc1NS(=O)(=O)c1ccc(C)cc1)c1ccccc1` (stereo not shown) [Example 92]: 0.9 µM; for `O=C(NC(c1ccccc1)c1ccccn1)c1cc(Cl)ccc1NS(=O)(=O)c1ccccc1` (stereo not shown) [Example 7, 2-Phenylsulfonylamino-5-chloro-N-(phenylpyridin-2-ylmethyl)benzamide]: 5.1 µM.
`Cc1ccc(S(=O)(=O)Nc2ccccc2C(=O)N(CCc2ccccn2)CC2CC2)cc1` [Example 42] showed an IC50 of 5 µM.
The same measure for `Cc1ccc(S(=O)(=O)Nc2ccccc2C(=O)N(Cc2ccccc2)Cc2ccc(C)o2)cc1` [Example 36]: 2 µM; for `CCC(NC(=O)c1cc(OC)ccc1NS(=O)(=O)c1ccc(C)cc1)c1ccncc1` (stereo not shown) [Example 53]: 2.5 µM.
Take `CC[C@H](NC(=O)c1ccccc1NS(=O)(=O)c1cccc(C)c1)c1ccccc1` [Example 59]: the IC50 is 1.7 µM.
The value for `CCCS(=O)(=O)Nc1ccccc1C(=O)N[C@@H](CC)c1ccccc1` [Example 73] was 3.1 µM; that for `CC[C@H](NC(=O)c1ccccc1NS(=O)(=O)c1ccc(Cl)cc1)c1ccccc1` [Example 68] was 2.9 µM; that for `Cc1ccc(S(=O)(=O)Nc2ccccc2C(=O)N(Cc2ccc(F)cc2)Cc2nccn2C)cc1` [Example 109] was 1.1 µM.
The same measure for `Cc1ccc(S(=O)(=O)Nc2ccccc2C(=O)N(Cc2ccccc2)Cc2cccnc2)cc1` [Example 8, N-Benzyl-N-pyridin-3-ylmethyl-2-(toluene-4-sulfonylamino)benzamide]: 0.9 µM.
The same measure for `CCCCS(=O)(=O)Nc1ccc(C)cc1C(=O)NC(c1ccccn1)C1CC1` (stereo not shown) [Example 125]: 1.8 µM; for `COc1ccc(NS(=O)(=O)c2cccc(C(F)(F)F)c2)c(C(=O)N(Cc2ccccc2)Cc2nccn2C)c1` [Example 43]: 5.4 µM.
Regarding `Cc1ccc(S(=O)(=O)Nc2ccccc2C(=O)N(Cc2cccc(C)n2)CC2CC2)cc1` [Example 113], it took 2.6 µM to reach half-maximal inhibition (IC50).
The same measure for `C#CC(NC(=O)c1cc(C)ccc1NS(=O)(=O)CCCC)c1ccccc1` (stereo not shown) [Example 128]: 2.2 µM; for `COc1ccc(NS(=O)(=O)c2ccc(C)cc2)c(C(=O)N[C@H]2CC[C@H](C)CC2)c1` [Example 143]: 3.6 µM; for `CCN(C(=O)c1cc(Cl)ccc1NS(=O)(=O)c1ccccc1)C1CCCCC1` [Example 18]: 6.7 µM.
The same measure for `CC[C@H](NC(=O)c1cc(OC)ccc1NS(=O)(=O)c1ccc(C)cc1)c1ccccc1` [Example 90]: 0.5 µM.
The same measure for `COc1ccc(S(=O)(=O)Nc2c(C)cccc2C(=O)NC(C)c2ccccc2)cc1` (stereo not shown) [Example 19]: 4.2 µM.
In turn, `CC[C@H](NC(=O)c1cc(Cl)ccc1NS(=O)(=O)c1ccccc1)c1ccccc1` [Example 3, (S)-2-Phenylsulfonylamino-5-chloro-N-(1-phenylpropyl)benzamide] displayed an IC50 of 2.8 µM.
In turn, `CCC(NC(=O)c1cccc(C)c1NS(=O)(=O)c1ccc(Cl)cc1)c1ccccc1` (stereo not shown) [Example 10] yielded an IC50 of 2.5 µM.
`CC[C@H](NC(=O)c1ccccc1NS(=O)(=O)c1ccc(OC)c(OC)c1)c1ccccc1` [Example 151] showed a concentration for half-maximal inhibition (IC50) of 1.5 µM.
The same measure for `Cc1ccc(S(=O)(=O)Nc2ccccc2C(=O)N(Cc2ccccc2)Cc2ccco2)cc1` [Example 38]: 1.6 µM; for `CC[C@H](NC(=O)c1ccccc1NS(=O)(=O)c1ccc(OC)cc1)c1ccccc1` [Example 64]: 0.6 µM.
The value for `Cc1ccc(S(=O)(=O)Nc2ccc(F)cc2C(=O)N(Cc2ccccc2)Cc2cccnc2)cc1` [Example 46] was 1.2 µM.
Turning to `Cc1ccc(S(=O)(=O)Nc2ccc(F)cc2C(=O)N(Cc2ccccc2)CC2CCCO2)cc1` (stereo not shown) [Example 100], the IC50 came to 1.6 µM.
The same measure for `C[C@H](NC(=O)c1cc(Cl)ccc1NS(=O)(=O)c1ccccc1)c1ccccc1` [Example 1, (S)-2-Phenylsulfonylamino-5-chloro-N-(1-phenylethyl)benzamide]: 5.5 µM.
The value for `Cc1ccc(S(=O)(=O)Nc2ccccc2C(=O)N(Cc2ccncc2)CC2CC2)cc1` [Example 48] was > 10 µM; that for `CC[C@H](NC(=O)c1ccccc1NS(=O)(=O)c1ccccc1)c1ccccc1` [Example 69] was 1.3 µM; that for `CCC(NC(=O)c1ccccc1NS(=O)(=O)c1ccc(C)cc1)c1ccco1` (stereo not shown) [Example 145] was 2.6 µM.
The value for `CCC(NC(=O)c1cc(OC)ccc1NS(=O)(=O)c1ccc(C)cc1)c1ccc(C)o1` (stereo not shown) [Example 135] was 1.2 µM.
Consider `COc1ccc(NS(=O)(=O)c2ccc(C)cc2)c(C(=O)NC(C)c2ccc(F)cc2)c1` (stereo not shown) [Example 104], for which the IC50 is 1 µM.
The value for `Cc1ccc(S(=O)(=O)Nc2ccc(F)cc2C(=O)NC2CCCCC2)cc1` [Example 14] was 8.5 µM.
The same measure for `CCCCS(=O)(=O)Nc1ccc(C)cc1C(=O)NC(CC)c1cccnc1` (stereo not shown) [Example 144]: 2.8 µM; for `CCC(Cc1c[nH]c2ccccc12)NC(=O)c1cc(OC)ccc1NS(=O)(=O)c1ccc(C)cc1` (stereo not shown) [Example 140]: 1.4 µM.
The same measure for `CCc1ccc(S(=O)(=O)Nc2ccccc2C(=O)N(Cc2ccccc2)Cc2cccnc2)cc1` [Example 72]: 5 µM.
`Cc1ccc(S(=O)(=O)Nc2ccccc2C(=O)N(Cc2ccccc2)Cc2cccnc2)cc1` [Example 79] had an IC50 of 0.7 µM.
Turning to `CC[C@H](NC(=O)c1cc(F)ccc1NS(=O)(=O)c1ccc(C)cc1)c1ccccc1` [Example 115], the 50% inhibitory concentration (IC50) worked out at 2.4 µM.
The same measure for `COc1cccc(S(=O)(=O)Nc2ccccc2C(=O)N(Cc2ccccc2)Cc2cccnc2)c1` [Example 70]: 3.8 µM; for `CCC(NC(=O)c1c(C)cccc1NS(=O)(=O)c1ccc(Cl)cc1)c1ccccc1` (stereo not shown) [Example 24]: 3 µM.
The same measure for `CC[C@H](NC(=O)c1cc(OC)ccc1NS(=O)(=O)CC)c1ccccc1` [Example 147]: 3.8 µM; for `CCN(C(=O)c1ccccc1NS(=O)(=O)c1ccc(Cl)cc1)C1CCCCC1` [Example 11]: 8 µM; for `CCCS(=O)(=O)Nc1ccc(OC)cc1C(=O)N[C@@H](CC)c1ccccc1` [Example 148]: 2.1 µM.
The value for `COc1cc(C)ccc1S(=O)(=O)Nc1ccc(Cl)cc1C(=O)NCCOCc1ccccc1` [Example 29] was 5.1 µM; that for `Cc1ccc(S(=O)(=O)Nc2ccccc2C(=O)N(Cc2ccccc2)Cc2nn(C)cc2Cl)cc1` [Example 89] was 3.2 µM; that for `Cc1ccc(S(=O)(=O)Nc2ccc(F)cc2C(=O)N(Cc2ccccc2)Cc2nccs2)cc1` [Example 110] was 1 µM.
`CCC(c1ccccc1)N(C)C(=O)c1ccccc1NS(=O)(=O)c1ccccc1` (stereo not shown) [Example 130]: the IC50 worked out at 0.7 µM.
The value for `CCC(NC(=O)c1cc(OC)ccc1NS(=O)(=O)c1ccc(C)cc1)c1ccc(F)cc1` (stereo not shown) [Example 91] was 0.8 µM; that for `CC[C@H](NC(=O)c1ccccc1NS(=O)(=O)c1ccc(C)cc1OC)c1ccccc1` [Example 76] was 4.7 µM.
The same measure for `C[C@@H](NC(=O)c1cc(Cl)ccc1NS(=O)(=O)c1ccccc1)c1ccccc1` [Example 2, (R)-2-Phenylsulfonylamino-5-chloro-N-(1-phenylethyl)benzamide]: 8.2 µM.
The value for `COc1ccc(NS(=O)(=O)c2ccc(C)cc2)c(C(=O)NC(c2cccnc2)C2CC2)c1` (stereo not shown) [Example 131] was 0.7 µM.
Compound `CCC(NC(=O)c1cc(C)ccc1NS(=O)(=O)C1CC1)c1ccc(C)o1` (stereo not shown) [Example 146] showed an IC50 of 2.5 µM.
The same measure for `Cc1ccc(S(=O)(=O)Nc2ccccc2C(=O)N(Cc2ccccc2)Cc2ccn[nH]2)cc1` [Example 112]: 0.5 µM; for `Cc1ccc(S(=O)(=O)Nc2ccccc2C(=O)N(CCc2cccnc2)CC2CC2)cc1` [Example 49]: 6.3 µM.
The same measure for `COc1ccc([C@H](C)NC(=O)c2cc(OC)ccc2NS(=O)(=O)c2ccc(C)cc2)cc1` [Example 97]: 0.9 µM; for `Cc1ccc(S(=O)(=O)Nc2ccccc2C(=O)N(CCCn2ccnc2C)Cc2ccccc2)cc1` [Example 39]: > 10 µM; for `O=C(NC(c1ccccc1)C1CC1)c1ccccc1NS(=O)(=O)c1ccccc1` (stereo not shown) [Example 94]: 1 µM.
The value for `CC[C@H](NC(=O)c1cc(F)ccc1NS(=O)(=O)c1ccc(Cl)cc1)c1ccccc1` [Example 106] was 3.8 µM.
For the compound `Cc1ccc(S(=O)(=O)Nc2ccccc2C(=O)N(Cc2nn(C)cc2Cl)CC2CC2)cc1` [Example 111], the midpoint of inhibition, the IC50, lay at 1.7 µM.
